We go through 6 molecules from US20160067314A1, “COMPOSITIONS AND METHODS FOR INHIBITING CHEMORESISTANCE IN CANCER AND IMPROVING RESPONSE TO THERAPY” (UNIVERSITY OF VIRGINIA PATENT FOUNDATION, priority 2013, published 2016).

One data set has as its system FM3. The experiment in a line: Ara-C concentration killing ~85% of adherent cells (preliminary experiments). Type of data set: cell-based, human. The following applies: Ara-C for 3 days. An excerpt: (§1) FIG. 1. ALCAM correlates with detachment-induced therapy resistance. Relative ALCAM expression levels in melanoma measured by (A) microarray analysis and (B) RT-PCR. Expression levels are normalized to M21. Values are means±SE. (C) Relative ALCAM expression versus cell survival in additional melanoma cell lines. The graph represents detachment-induced resistance (“delta”) as the fold difference in survival between suspended versus adherent cells. Survival of adherent and suspended cells after treatment with chemotherapy (Ara-C) for 3 days was determined by replating on fibronectin. Concentrations of Ara-C were chosen for each cell line to kill ˜85% of adherent cells as determined in preliminary experiments. Concentrations were: A208 cells, 0.5 μM; A375.S2 cells, 0.3 μM; RPMI7951 cells, 5 μM, FM3: 10 μM). (D) Delta was plotted against ALCAM message level determined by RT-PCR. Values are means±SE, n>3.
(§2) The human melanoma cell lines; M21, VMM12, VMM15, VMM1, VMM5A, VMM18 were cultured as described [Molhoek, 2008; Schwartz, 2008]. RPMI7951, A208, and A375.S2 were cultured in DMEM/F12 medium supplemented with 5% heat inactivated fetal bovine serum, 15 mM HEPES and penicillin-streptomycin. FM3 cells were grown in DMEM supplemented with 10% fetal bovine serum and penicillin-streptomycin. Cell survival assays and colony assay were performed as described before [Schwartz, 2008].

For a further data set, the system named is A208 cells. The data set is described as above. Type of data set: cell-based, human. Particulars: Ara-C for 3 days.
Excerpt: as §1, §2

For a further data set, the system named is A375.S2 cells. Described as above. In kind it is cell-based, human. The following applies: Ara-C for 3 days.
Excerpt: as §1, §2

For another data set, the system named is RPMI7951 cells. Described as above. The following applies: Ara-C for 3 days. In kind it is cell-based, human.
Excerpt: as §1, §2

The subject of data set [1] is subcutaneous M21 tumors. Put plainly: Mouse tumor growth, subcutaneous M21 tumors, AZN-L50 and/or cisplatin. In kind it is in vivo. The following applies: SCID mice, s.c. M21 tumors, i.p., two treatments ~1 week apart; cisplatin 8 then 3.5 mg/kg, AZN-L50 100 μg/mouse.
Description: (A) Mice with palpable subcutaneous tumors were treated with cisplatin alone (CD), AZN-L50 (AZN) alone, or CD plus AZN-L50 (AZN+CD). Mice received 2 treatments 1 week apart. Tumor volume was then followed. Values are means±SE; n=8-11 mice.
Tumor generation and measurement was done as described [Schwartz, 2008]. Briefly male SCID mice (Charles River) were injected s.c. with 100,000 M21 cells. When tumors were first palpable, mice were injected I.P with cisplatin (8 mg/kg: first week and 3.5 mg/kg: second week), AZN-L50 (100 μg/mouse) or both for 2 consecutive weeks. The tumor volumes were recorded weekly.
All statistical analyses were done as described [Schwartz, 2008]. Briefly repeated measures models were used to compare tumor growth in control, cisplatin alone, AZN-L50 alone and cisplatin+AZN-L50 groups. These models account for the correlations among measurements taken from the same animal over time. We used linear models for the log-transformed tumor growth and the assumption that the correlation between measurements decreases with the amount of time between the measurements. F-tests based on contrasts were used to make specific comparisons between groups. All analyses were carried out in SAS 9.2 and GAUSS 10.0.
Data set [2] deals with subcutaneous M21 tumors. Put plainly: Mouse tumor growth, subcutaneous M21 tumors, FN-COMP and/or cisplatin. Type of data set: in vivo. Particulars: SCID mice; for Tumor growth / tumor size: s.c. M21 tumors, i.p., three treatments ~1 week apart, cisplatin 8 then 3.5 mg/kg, FN-COMP 500 μg/mouse. As for the experimental part: (§3) FIG. 4, Example 2—FN-COMP in chemotherapy in vivo. (A) SCID mice were injected with 500 μg of FN-COMP. At the indicated times, plasma was analyzed by western blotting for fibronectin (FN). (B) Mice with palpable subcutaneous tumors were treated with cisplatin (CD), FN-COMP (FNC) alone, or CD plus FNC. Mice received 3 successive treatments 1 week apart. Tumor volumes were then followed. Values are means±SE, n=10-15 mice. For CD vs. CD+FNC: *P<0.0031. The error bars are asymmetric because the analysis was done in the log-scale, and then converted back to the original scale. Qualitatively similar results were obtained in 2 independent experiments.
(§4) Tumor generation in 6-8 wk old male SCID mice (Charles River Laboratories) and tumor measurement were done as described. When tumors were first palpable, mice were injected intraperitoneally (i.p.) with cisplatin (8 mg/kg: first week and 3.5 mg/kg: second and third weeks), FN-COMP (500 μg/mouse) or both for 3 consecutive weeks. The tumor volumes were recorded weekly. To assay levels in the blood, SCID mice with no tumors were injected intraperitoneally with FN-COMP (500 μg/mouse). Blood was collected at 0, 3, 6, or 24 h post injection. Plasma was subjected to Western blotting with the indicated antibodies. All animal procedures were done according to our institutional Animal Care and Use Committee guidelines.
Statistical analyses were done as described. Briefly, repeated measures models were used to compare tumor growth in control, cisplatin alone, FN-COMP alone and cisplatin+FN-COMP groups. These models account for the correlations among measurements taken from the same animal over time. We used linear models for the log-transformed tumor growth and the assumption that the correlation between measurements decreases with the amount of time between the measurements. F-tests based on contrasts were used to make specific comparisons between groups. All analyses were carried out in SAS 9.2 and GAUSS 10.0.

Data set [3] concerns M21 melanoma cells. Put plainly: Short term survival assay after chemotherapy, adherent or suspended cells. Particulars: M21, siRNA transfected, 10 μM Ara-C, 3 days. Type of data set: cell-based, human. How it is done: (§5) FIG. 2. ALCAM mediates detachment-induced therapy resistance. (A) ALCAM expression by RT-PCR in M21 melanoma cells after transfection with indicated siRNAs. Values are means±SE. (B) Proliferation of M21 cells expressing either ALCAM or control siRNA. 5×10^5 cells were plated and after 72 h counted. Values are means±SD, (C) Short term survival assays—cells transfected with the indicated siRNAs were treated with chemotherapy (M21:10 μM Ara-C; VMM12:10 μM cisplatin) while adherent (Ad) or suspended (Sus). Cell survival was assayed after 3 days. Values are means±SE, n>3. (D) Adherent or suspended M21 cells were treated with 10 μM Ara-C, then washed and re-plated, and colonies counted after 10 days. Values are means±SD, n=3. **P<0.01, *P<0.05
(§6) We next asked whether ALCAM might play a causal role in chemoresistance induced by loss of integrin-mediated cell adhesion. We therefore designed and tested several siRNA sequences. […] We next examined chemosensitivity in adherent and suspended M21 and VMM12 melanoma lines. Cells transfected with two distinct ALCAM siRNAs (#10 or #11), or control siRNA, were treated with chemotherapy for 3 days, then survival assayed by re-plating on fibronectin. […] Control siRNA had no effect in either condition.
(§7) ALCAM can mediate homophilic adhesion, as well as heterophilic adhesion to CD6, both of which are blocked by a monoclonal antibody, AZN-L50 (van Kempen J Biol Chem. 2001; 276:25783-90; Zimmerman Blood. 2006; 107:3212-20). […] M21 and VMM12 cells were subject to chemotherapy for 72 h while adherent or suspended, in the presence or absence of AZN-L50. Survival was then assayed as before.
as §2

For data set [4], the system named is VMM12 melanoma cells. Described as above. Type of data set: cell-based, human. The following applies: VMM12, siRNA transfected, 10 μM cisplatin, 3 days. How it is done: as §5, §6, §7, §2
A further data set has as its system integrin signaling. Put plainly: Tyrosine phosphorylation in suspended cells, Western blot with pY20. Particulars: suspended M21 melanoma or mouse 3T3 cells, FN-COMP 40 μg/ml. In kind it is cell-based. How it is done: FIG. 2, Example 2—FN-COMP stimulates signaling in vitro. Either M21 melanoma or mouse 3T3 cells were left adherent (Ad) or detached and kept in suspension (sus) for 1 h. Suspended cells were either treated with of FN-COMP at 40 μg/ml for indicated times or left untreated. Lysates were analyzed by Western blotting using antiphosphotyrosine antibody pY20. Tubulin was used as a loading control. n=2.
Cells were lysed as previously described. Proteins were separated on SDS-PAGE gels, transferred, blocked, and probed with the indicated primary antibodies. Blots were washed, incubated with secondary antibodies and developed using ECL reagents (Pierce) and film (Kodak). FN-COMP under reducing and non-reducing condition was loaded on SDSPAGE gels and was subjected electrophoresis. Gels were stained with Coomassie Blue to visualize the bands.
For orientation: Immunoblotting shows a protein as a band on a membrane.

Data set [5] has as its system M21 melanoma cells. Put plainly: Cell survival of non-adherent cells after FN-COMP and X-irradiation. Type of data set: cell-based, human. The following applies: M21 suspended, FN-COMP 40 μg/ml 30-45 min, then 10 Gy X-irradiation, survival 72 h later. How it is done: (§8) (A) M21, (B) VMM12 or (C) VMM18 melanoma cells were left adherent (Ad) or detached and kept in suspension (Sus) for 1 h. Suspended cells were then treated with of FN-COMP (FNC) at 40 μg/ml for 30-45 min followed by treatment with either 10 Gy X-irradiation (A) or Ara-C at 10 μM (B and C). Cell survival was assayed 72 h later. Values are means } SE, n=3. *P<0.05.
(§9) The human melanoma cell lines; M21, VMM12, VMM18 were cultured as described. Cell survival assays and colony assay were performed as described. Cells were irradiated using an X-ray irradiator at a dose rate of 3.3 Gy/min.

The test system of a further data set is VMM18 melanoma cells. Put plainly: Cell survival of non-adherent cells after FN-COMP and Ara-C. In kind it is cell-based, human. Particulars: VMM18 suspended, FN-COMP 40 μg/ml 30-45 min, then Ara-C 10 μM, survival 72 h later. How it is done:
as §8, §9

For data set [6], the system named is VMM12 melanoma cells. The description is as above. In kind it is cell-based, human. Particulars: VMM12 suspended, FN-COMP 40 μg/ml 30-45 min, then Ara-C 10 μM, survival 72 h later. How it is done: as §8, §9
Data set [7] can be described thus: FN-COMP levels in blood after intraperitoneal injection, plasma Western blot for fibronectin. Type of data set: in vivo. The following applies: SCID mice, 500 μg/mouse i.p. How it is done:
as §3, §4

For a further data set, the system named is human melanoma. Particulars: mouse xenografts of human melanoma, previous report [7]; cited from earlier work. (In general: A xenograft is tissue or cells of one species grown in another, often human tumour cells in immunodeficient mice.)
The subject of data set [8] is focal adhesion kinase and p130cas. Particulars: observed at nM concentrations; cited from earlier work.

For the molecule `Nc1ccn([C@@H]2O[C@H](CO)[C@@H](O)[C@@H]2O)c(=O)n1` [Ara-C, 1-β-D-arabinofuranosylcytosine], the “Concentration of Ara-C chosen to kill ˜85% of adherent cells” value stood at 10 µM with FM3, 0.5 µM in the data set on A208 cells, 0.3 µM in the data set with A375.S2 cells and 5 µM in the data set on RPMI7951 cells.

In the case of `N.N.[Cl][Pt][Cl]` [cisplatin, cis-Dichlorodiamine platinum(II)], the “Tumor growth / tumor size” value is “Neither AZN-L50 alone nor cisplatin alone had significant effects on tumor growth” in the data set on subcutaneous M21 tumors [1] and “Neither FN-COMP alone nor cisplatin alone had significant effects on tumor growth” in the data set with subcutaneous M21 tumors [2].

With “ALCAM siRNA #10: siRNA that targets ALCAM, 5-GGAAACUAUGUCUGCGAAA-3 (SEQ ID NO:5) (listed as RNA, chemistry not given here)”, in the data set with M21 melanoma cells [3], the “Cell survival, adherent cells” value was “no effect” and the “Cell survival, suspended cells” value is recorded as “drastically reduced cell survival”. In the data set on VMM12 melanoma cells [4], the “Cell survival, adherent cells” value is “no effect” and the “Cell survival, suspended cells” value was “drastically reduced cell survival”.

On to “ALCAM siRNA #11: siRNA that targets ALCAM, 5′-CACCTGCTCGGTGACATATTA-3′ (SEQ ID NO:4), described before [Hong, 2010] (other strand not cited, further chemistry not given here)”, for which, in the data set on M21 melanoma cells [3], the “Cell survival, adherent cells” value was “no effect” and the “Cell survival, suspended cells” value is on record as “drastically reduced cell survival”. In the data set with VMM12 melanoma cells [4], the “Cell survival, adherent cells” value is on record as “no effect” and the “Cell survival, suspended cells” value was “drastically reduced cell survival”.

On to “FN-COMP: homo-pentameric construct of fibronectin peptides (type III repeats 5-11) linked by the assembly domain of COMP (amino acid residues 27-84)”, for which the “Tyrosine phosphorylation (characteristic of integrin signaling)” value in the data set with integrin signaling is “increased tyrosine phosphorylation of bands around 60, 75 and 125 kD”. The “Side effects in the mice” value in the data set on subcutaneous M21 tumors [2] (3 weekly i.p. treatments) is “not observed”. Also, the “Tumor growth / tumor size” value with subcutaneous M21 tumors [2] is reported as “Neither FN-COMP alone nor cisplatin alone had significant effects on tumor growth”. Moreover, the “Response to therapy (radiosensitivity) of non-adherent cells” value in the data set on M21 melanoma cells [5] was “improved chemo and radiosensitivity”. In addition, the “Response to therapy (chemosensitivity) of non-adherent cells” value with VMM18 melanoma cells was “no effect”. Further, the “Response to therapy (chemosensitivity) of non-adherent cells” value in the data set with VMM12 melanoma cells [6] was “improved chemo and radiosensitivity”. In addition, in data set [7], the “Stability in blood after injection” value is reported as “at least 24 h” and the “Time of appearance in the blood” value is on record as ≤ 3 h.

As for contortrostatin, in the data set with human melanoma, the “Therapeutic responses when combined with chemotherapy” value was “improved therapeutic responses”. Besides, the “Tyrosine phosphorylation of integrin targets” value in [8] is listed as “strongly increased”.
